Measured values reported in patent publication US11738008B2, “N-methyl-D-aspartic acid receptor modulators” (Emory University, priority 2018, dated 2023).
Like-named read-outs stand apart in the source and are kept apart here.

Columns and labels:
[1] = In vivo pharmacokinetics, plasma and brain, IP 10 mg/kg; parameters: species or system C57BL/6 mice; details: mouse; for AUC % Extrapolation / AUCINF / AUCLAST / t½terminal / Tmax / Cmax / AUC(0-inf) / AUC(0-t): mean; for max brain concentration / half-life: IP 10 mg/kg; for Kp / half-life / Tmax / Cmax / AUC(0-inf) / AUC(0-t): male; for Kp: C57BL/6, brain and plasma, IP 10 mg/kg fed, read-out: Ratio_AUCLAST (Brain/plasma); for half-life: C57BL/6, plasma, read-out: half-lives in plasma; for Tmax / Cmax / AUC(0-inf) / AUC(0-t): C57BL/6
Method: In vivo analysis of 1180-420 and 1180-447 for pharmacokinetic properties: In vivo analysis of 1180-420 and 1180-447 for pharmacokinetic properties was performed by Pharmaron (Irvine, Calif.). […] The mouse is placed head down at a 45-degree angle to facilitate blood removal. After perfusion, the brain ventricle is opened, and the brain is removed. […] The mixtures were then vortexed for 30 seconds and subsequently centrifuged (˜4000 rpm) for 15 minutes.

[2] = target: T1, D1 (Homo sapiens, UniProt P21728); experiment: NIMH PDSP radioligand binding, D1; details: read-out: Radioligand binding in 10 μM compound (% control)
T1 construct: NIMH PDSP (assay provider)
Method: (§1) The NIMH PDSP is Directed by Bryan L. Roth at the University of North Carolina at Chapel Hill and Project Officer Jamie Driscoll at NIMH, Bethesda Md., USA. Radioligand binding was measured in the presence of 10 μM 1180-420 and 1180-447. […] For experimental details please refer to the PDSP web site https://pdsp.unc.edu/ims/investigator/web/. Both 1180-420 and 1180-447 were also tested at AMPA, nicotinic acetylcholine, serotonin, GABA, and glycine ion channels using a two-electrode voltage clamp assay.
(§2) Receptor binding profiles of compound 1180-447 were generously provided by the National Institute of Mental Health's Psychoactive Drug Screening Program, Contract # HHSN-271-2013-00017-C(NIMH PDSP). The NIMH PDSP is directed by Bryan L. Roth at the University of North Carolina at Chapel Hill and Project Officer Jamie Driscoll at NIMH, Bethesda Md., USA. Radioligand binding was measured in the presence of 10 μM 1180-447. […] For experimental details please refer to the PDSP web site https://pdsp.unc.edu/ims/investigator/web/.
(§3) The NIMH PDSP is Directed by Bryan L. Roth at the University of North Carolina at Chapel Hill and Project Officer Jamie Driscoll at NIMH, Bethesda Md., USA. Radioligand binding was measured in the presence of 10 μM 1180-420. […] For experimental details please refer to the PDSP web site https://pdsp.unc.edu/ims/investigator/web/.

[3] = target: T2, 5-HT7 (Homo sapiens, UniProt P34969); experiment: NIMH PDSP radioligand binding, 5-HT7; details: read-out: Radioligand binding in 10 μM compound (% control)
T2 construct: NIMH PDSP (assay provider)
Method: as §1, §2, §3

[4] = target: T3, D3 (Homo sapiens, UniProt P35462); experiment: NIMH PDSP radioligand binding, D3; details: read-out: Radioligand binding in 10 μM compound (% control)
T3 construct: NIMH PDSP (assay provider)
Method: as §1, §2, §3

[5] = target: σ2 (Homo sapiens, UniProt Q5BJF2); experiment: NIMH PDSP radioligand binding, σ2; details: for remaining activity at 10 µM: read-out: Radioligand binding in 10 μM compound (% control); for Ki: read-out: pKi values from non-linear regression of radioligand competition binding isotherms (converted)
Method: as §1, §2, §3

[6] = target: T4, D5 (Homo sapiens, UniProt P21918); experiment: NIMH PDSP radioligand binding, D5; details: for remaining activity at 10 µM: read-out: Radioligand binding in 10 μM compound (% control)
T4 construct: NIMH PDSP (assay provider)
Method: as §1, §2, §3

[7] = target: M4 (Homo sapiens, UniProt P08173); experiment: NIMH PDSP radioligand binding, M4; details: read-out: Radioligand binding in 10 μM compound (% control)
Method: as §1, §2, §3

[8] = tested on: α1β2γδ-nACh; experiment: Off-target two-electrode voltage clamp assay, α1β2γδ-nACh; format: cell-based; details: 10 μM, mean ± SEM
Method: as §1

[9] = target: T5, 5-HT5A (Homo sapiens, UniProt P47898); experiment: NIMH PDSP radioligand binding, 5-HT5A; details: read-out: Radioligand binding in 10 μM compound (% control)
T5 construct: NIMH PDSP (assay provider)
Method: as §1, §2, §3

[10] = target: β1 (Homo sapiens, UniProt P08588); experiment: NIMH PDSP radioligand binding, β1; details: read-out: Radioligand binding in 10 μM compound (% control)
Method: as §1, §2, §3

[11] = target: μ-opioid receptor (Homo sapiens, UniProt P35372); experiment: NIMH PDSP radioligand binding, μ-opioid receptor; details: read-out: Radioligand binding in 10 μM compound (% control)
Method: as §1, §2, §3

[12] = target: T6, 5-HT1E (Homo sapiens, UniProt P28566); experiment: NIMH PDSP radioligand binding, 5-HT1E; details: read-out: Radioligand binding in 10 μM compound (% control)
T6 construct: NIMH PDSP (assay provider)
Method: as §1, §2, §3

[13] = target: rat GluN1/GluN2D (Rattus norvegicus, UniProt Q62645); experiment: Two-electrode voltage clamp recordings in Xenopus laevis oocytes, potentiation of GluN1/GluN2D; format: cell-based
Method: (§4) Xenopus laevis oocytes were purchased unfertilized from Ecocyte (Austin, Tex.). The oocytes were injected with mRNA to express recombinant rat GluN1/GluN2A, GluN1/GluN2B, GluN1/GluN2C, and GluN1/GluN2D and two-electrode voltage clamp (TEVC) recordings were performed. Drs. S. Heinemann (Salk Institute), S. Nakanishi (Kyoto University), and P. Seeburg (University of Heidelberg) provided the cDNAs for rat GluN1-1a (GenBank accession numbers U11418 and U08261, referred to as GluN1 henceforth), GluN2A (D13211), GluN2B (U11419), GluN2C (M91563), and GluN2D (D13213). GluN2C and GluN2D were altered according to literature precedent. […] To prevent the current increase typically seen during experiments with oocytes expressing GluN1/GluN2A receptors, the oocytes were either injected with 20 nL of 100 mM K-BAPTA (potassium 1,2-bis(o-aminophenoxy)ethane-N,N,N,N-tetraacetic acid) or pretreated with 50 μM BAPTA-AM (1,2-bis(o-aminophenoxy)ethane-N,N,N,N-tetraacetic acid tetraacetoxymethyl ester) for 10 minutes.

[14] = target: rat GluN1/GluN2D (Rattus norvegicus, UniProt P35439+Q62645); experiment: as above; format: cell-based
Method: as §4

[15] = target: dopamine transporter (Homo sapiens, UniProt Q01959); experiment: NIMH PDSP radioligand binding, dopamine transporter; details: read-out: Radioligand binding in 10 μM compound (% control)
Method: as §1, §2, §3

[16] = Brain IP 10 mg/kg fed, read-out: Cmax
[17] = Brain IP 10 mg/kg fed, read-out: Cmax (ng/g)
[18] = Plasma IP 10 mg/kg fed, read-out: Cmax
[19] = Plasma IP 10 mg/kg fed, read-out: Cmax (ng/mL)

T4 sequence (P21918 whole entry): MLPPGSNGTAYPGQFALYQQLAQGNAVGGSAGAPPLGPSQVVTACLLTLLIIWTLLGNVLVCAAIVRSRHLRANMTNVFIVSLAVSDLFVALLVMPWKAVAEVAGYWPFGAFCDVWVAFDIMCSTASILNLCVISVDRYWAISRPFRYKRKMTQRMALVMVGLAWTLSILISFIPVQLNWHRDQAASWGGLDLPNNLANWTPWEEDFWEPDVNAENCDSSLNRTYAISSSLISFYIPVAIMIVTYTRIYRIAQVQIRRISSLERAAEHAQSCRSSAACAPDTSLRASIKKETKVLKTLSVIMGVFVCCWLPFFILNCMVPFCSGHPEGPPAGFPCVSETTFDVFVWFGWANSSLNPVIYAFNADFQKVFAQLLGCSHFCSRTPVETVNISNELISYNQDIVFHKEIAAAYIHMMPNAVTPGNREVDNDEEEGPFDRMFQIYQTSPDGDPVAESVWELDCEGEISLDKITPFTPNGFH
σ2, sequence (Q5BJF2 whole entry): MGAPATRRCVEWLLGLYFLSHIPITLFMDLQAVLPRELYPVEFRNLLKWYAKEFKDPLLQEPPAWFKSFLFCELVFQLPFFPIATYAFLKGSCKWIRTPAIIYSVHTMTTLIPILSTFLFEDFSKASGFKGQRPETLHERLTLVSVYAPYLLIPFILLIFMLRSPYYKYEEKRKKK
T6 sequence (P28566 whole entry, species assumed): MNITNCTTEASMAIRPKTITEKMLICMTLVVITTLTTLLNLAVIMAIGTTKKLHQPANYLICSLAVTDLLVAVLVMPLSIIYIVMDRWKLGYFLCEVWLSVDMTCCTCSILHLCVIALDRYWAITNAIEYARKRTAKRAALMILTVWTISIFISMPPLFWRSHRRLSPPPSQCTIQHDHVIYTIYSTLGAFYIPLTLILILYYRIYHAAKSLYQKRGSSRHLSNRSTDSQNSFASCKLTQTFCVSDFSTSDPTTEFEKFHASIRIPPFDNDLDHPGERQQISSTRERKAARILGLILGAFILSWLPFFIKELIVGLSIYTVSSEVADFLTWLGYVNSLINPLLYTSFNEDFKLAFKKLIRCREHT
rat GluN1/GluN2D (Rattus norvegicus, UniProt Q62645), sequence (Q62645 28-1323, other chains not shown): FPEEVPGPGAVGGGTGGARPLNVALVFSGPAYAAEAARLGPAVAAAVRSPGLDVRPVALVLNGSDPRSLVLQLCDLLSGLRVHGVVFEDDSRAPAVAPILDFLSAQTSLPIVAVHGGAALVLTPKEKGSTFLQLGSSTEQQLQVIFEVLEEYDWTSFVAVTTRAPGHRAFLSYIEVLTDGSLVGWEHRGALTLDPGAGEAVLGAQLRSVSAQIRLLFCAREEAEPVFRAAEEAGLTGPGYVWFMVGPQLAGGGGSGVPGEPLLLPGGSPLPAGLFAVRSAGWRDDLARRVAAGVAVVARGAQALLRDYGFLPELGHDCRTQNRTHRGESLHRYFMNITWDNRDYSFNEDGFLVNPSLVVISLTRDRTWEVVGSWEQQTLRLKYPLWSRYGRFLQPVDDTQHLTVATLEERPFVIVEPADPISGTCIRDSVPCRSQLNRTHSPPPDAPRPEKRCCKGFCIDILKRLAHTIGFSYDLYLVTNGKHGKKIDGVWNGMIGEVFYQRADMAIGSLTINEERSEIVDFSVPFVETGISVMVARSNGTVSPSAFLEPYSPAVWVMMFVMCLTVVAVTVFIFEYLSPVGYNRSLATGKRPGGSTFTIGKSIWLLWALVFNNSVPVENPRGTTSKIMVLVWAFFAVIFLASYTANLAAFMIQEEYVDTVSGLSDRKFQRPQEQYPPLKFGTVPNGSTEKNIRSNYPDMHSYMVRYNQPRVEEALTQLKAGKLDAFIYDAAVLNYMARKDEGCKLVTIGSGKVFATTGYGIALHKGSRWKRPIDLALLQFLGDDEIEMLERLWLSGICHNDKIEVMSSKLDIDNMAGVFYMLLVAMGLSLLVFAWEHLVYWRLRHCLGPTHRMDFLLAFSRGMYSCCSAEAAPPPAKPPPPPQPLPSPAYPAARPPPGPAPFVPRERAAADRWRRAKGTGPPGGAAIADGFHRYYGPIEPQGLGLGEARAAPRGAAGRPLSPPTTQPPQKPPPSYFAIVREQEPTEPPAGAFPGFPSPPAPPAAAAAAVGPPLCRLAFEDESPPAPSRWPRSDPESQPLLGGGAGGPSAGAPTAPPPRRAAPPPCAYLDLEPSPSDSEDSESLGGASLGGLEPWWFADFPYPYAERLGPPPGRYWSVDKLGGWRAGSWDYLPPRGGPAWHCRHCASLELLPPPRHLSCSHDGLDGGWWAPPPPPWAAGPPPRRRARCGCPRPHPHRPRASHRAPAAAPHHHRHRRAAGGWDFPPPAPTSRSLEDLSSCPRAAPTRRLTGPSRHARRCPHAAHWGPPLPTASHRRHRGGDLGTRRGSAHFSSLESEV
rat GluN1/GluN2D (Rattus norvegicus, UniProt P35439+Q62645), sequence (Q62645 28-1323, other chains not shown): as above
dopamine transporter, sequence (Q01959 whole entry): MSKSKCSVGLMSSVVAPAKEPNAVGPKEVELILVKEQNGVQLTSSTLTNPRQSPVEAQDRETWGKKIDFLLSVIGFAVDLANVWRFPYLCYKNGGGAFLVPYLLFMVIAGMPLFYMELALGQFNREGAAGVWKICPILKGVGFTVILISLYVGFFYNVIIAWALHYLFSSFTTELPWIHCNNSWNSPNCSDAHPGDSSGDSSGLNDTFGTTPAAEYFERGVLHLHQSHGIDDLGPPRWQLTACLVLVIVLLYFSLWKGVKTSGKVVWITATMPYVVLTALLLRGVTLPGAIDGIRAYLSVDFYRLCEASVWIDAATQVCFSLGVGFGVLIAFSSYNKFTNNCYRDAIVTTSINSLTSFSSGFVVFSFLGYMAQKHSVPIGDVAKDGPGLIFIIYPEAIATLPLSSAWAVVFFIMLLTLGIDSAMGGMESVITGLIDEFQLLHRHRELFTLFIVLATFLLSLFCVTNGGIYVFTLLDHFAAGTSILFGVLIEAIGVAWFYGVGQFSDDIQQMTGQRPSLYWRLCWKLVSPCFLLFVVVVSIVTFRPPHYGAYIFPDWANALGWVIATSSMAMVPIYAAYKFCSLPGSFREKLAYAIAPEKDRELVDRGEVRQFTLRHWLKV
M4, sequence (P08173 whole entry): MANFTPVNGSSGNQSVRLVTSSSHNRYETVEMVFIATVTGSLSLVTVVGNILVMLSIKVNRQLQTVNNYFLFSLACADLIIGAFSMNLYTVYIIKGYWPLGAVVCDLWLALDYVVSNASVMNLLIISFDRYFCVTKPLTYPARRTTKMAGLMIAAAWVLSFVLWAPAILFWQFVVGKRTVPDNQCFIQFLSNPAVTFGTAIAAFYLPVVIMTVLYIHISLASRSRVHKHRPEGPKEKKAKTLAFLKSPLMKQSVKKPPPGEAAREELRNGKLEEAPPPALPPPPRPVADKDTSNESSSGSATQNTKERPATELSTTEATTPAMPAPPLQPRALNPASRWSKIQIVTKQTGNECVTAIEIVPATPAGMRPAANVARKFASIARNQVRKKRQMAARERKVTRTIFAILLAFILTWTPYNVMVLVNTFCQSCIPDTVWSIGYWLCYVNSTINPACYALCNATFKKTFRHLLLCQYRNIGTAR
T1 sequence (P21728 whole entry): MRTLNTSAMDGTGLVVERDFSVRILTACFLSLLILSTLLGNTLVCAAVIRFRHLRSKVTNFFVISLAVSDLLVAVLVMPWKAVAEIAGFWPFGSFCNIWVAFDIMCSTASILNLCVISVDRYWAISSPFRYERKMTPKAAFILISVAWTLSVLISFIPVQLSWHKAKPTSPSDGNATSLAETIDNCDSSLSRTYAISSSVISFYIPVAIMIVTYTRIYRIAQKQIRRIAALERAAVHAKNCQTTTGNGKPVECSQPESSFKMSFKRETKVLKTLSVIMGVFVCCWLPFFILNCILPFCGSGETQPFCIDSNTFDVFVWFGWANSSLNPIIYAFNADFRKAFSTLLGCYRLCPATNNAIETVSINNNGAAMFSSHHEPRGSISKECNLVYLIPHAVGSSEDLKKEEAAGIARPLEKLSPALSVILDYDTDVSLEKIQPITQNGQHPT
T5 sequence (P47898 whole entry, species assumed): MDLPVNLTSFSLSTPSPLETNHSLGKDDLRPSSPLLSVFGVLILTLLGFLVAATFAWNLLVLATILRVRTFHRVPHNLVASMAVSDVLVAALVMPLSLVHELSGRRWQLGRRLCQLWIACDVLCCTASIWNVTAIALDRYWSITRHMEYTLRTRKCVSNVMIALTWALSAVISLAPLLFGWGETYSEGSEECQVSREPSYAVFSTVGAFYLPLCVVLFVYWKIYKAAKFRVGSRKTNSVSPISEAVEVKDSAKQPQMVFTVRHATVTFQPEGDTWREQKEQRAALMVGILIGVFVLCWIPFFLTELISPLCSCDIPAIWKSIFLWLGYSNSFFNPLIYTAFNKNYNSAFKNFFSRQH
T3 sequence (P35462 whole entry): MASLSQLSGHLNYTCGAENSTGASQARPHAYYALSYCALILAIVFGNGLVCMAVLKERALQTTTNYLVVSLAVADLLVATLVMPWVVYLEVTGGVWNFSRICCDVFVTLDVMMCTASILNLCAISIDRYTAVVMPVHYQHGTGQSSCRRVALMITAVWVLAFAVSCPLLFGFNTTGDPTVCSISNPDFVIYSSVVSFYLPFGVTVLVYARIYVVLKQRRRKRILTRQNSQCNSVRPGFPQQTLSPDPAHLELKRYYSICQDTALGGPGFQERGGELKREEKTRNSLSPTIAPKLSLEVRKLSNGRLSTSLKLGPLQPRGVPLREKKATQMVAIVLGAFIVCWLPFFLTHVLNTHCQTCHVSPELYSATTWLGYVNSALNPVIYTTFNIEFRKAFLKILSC

| Compound | AUC % Extrapolation ([1]; Brain IP 10 mg/kg fed) [%] | AUCINF ([1]; Brain IP 10 mg/kg fed) [ng·h/g] | AUCLAST ([1]; Brain IP 10 mg/kg fed) [ng·h/g] | t½terminal ([1]; Brain IP 10 mg/kg fed) [min] | max brain concentration [1] [µM] | AUC % Extrapolation ([1]; Plasma IP 10 mg/kg fed) [%] | t½terminal ([1]; Plasma IP 10 mg/kg fed) [min] | Kp [1] | half-life [1] [min] | Tmax ([1]; Brain IP 10 mg/kg fed) [min] | Cmax [1, 16] [nM] | Cmax [1, 17] [ng/g] | AUC(0-inf) ([1]; Plasma IP 10 mg/kg fed) [ng·h/mL] | AUC(0-t) ([1]; Plasma IP 10 mg/kg fed) [ng·h/mL] | Tmax ([1]; Plasma IP 10 mg/kg fed) [min] | Cmax [1, 18] [nM] | Cmax [1, 19] [ng/mL] | remaining activity at 10 µM [2] [%] | remaining activity at 10 µM [3] [%] | remaining activity at 10 µM [4] [%] | further results |
| --- | --- | --- | --- | --- | --- | --- | --- | --- | --- | --- | --- | --- | --- | --- | --- | --- | --- | --- | --- | --- | --- |
| COc1ccc(OCC2c3cccn3CCN2C(=O)c2cccc(Cl)c2)cc1 (centres unmarked) [1180-420, (3-Chlorophenyl)(1-((4-methoxyphenoxy)methyl)-3,4-dihydropyrrolo[1,2-a]pyrazin-2(1H)-yl)methanone] | 7 | 1413 | 1315 | 66 | 4 | 8 | 66 | 2 | > 60 | 18 | 3500 | 1410 | 856 | 792 | 18 | 2100 | 841 | 59 | 115 | 71 | remaining activity at 10 µM [5]: 48%; Ki [5]: 1.58 µM; remaining activity at 10 µM [6]: 37%; Ki ([6]; read-out: pKi values from non-linear regression of radioligand competition binding isotherms (converted)): 1.26 µM; remaining activity at 10 µM [7]: 84%; % control response [8]: 93.4 ± 15.5 % control response; remaining activity at 10 µM [9]: 95%; remaining activity at 10 µM [10]: 98%; remaining activity at 10 µM [11]: 104%; remaining activity at 10 µM [12]: 78%; GluN2D Max % ([13]; maximal response, current without potentiator = 100%): 374%; EC50 ([14]; read-out: GluN2D EC50): 2.3 µM; remaining activity at 10 µM [15]: 98% |
| COc1ccc(OCC2c3cccn3CC(=O)N2Cc2cccc(C(F)(F)F)c2)cc1 (racemic) [1180-447, 1-((4-Methoxyphenoxy)methyl)-2-(3-(trifluoromethyl)benzyl)-1,2-dihydropyrrolo[1,2-a]pyrazin-3(4H)-one] | 9 | 1836 | 1670 | 72 | 4 | 6 | 60 | 2 | > 60 | 30 | 3900 | 1670 | 760 | 715 | 18 | 1500 | 635 | 87 | 83 | 93 | remaining activity at 10 µM [5]: 32%; Ki [5]: 1.58 µM; remaining activity at 10 µM [6]: 67%; remaining activity at 10 µM [7]: 100%; % control response [8]: 78.5 ± 4.5 % control response; remaining activity at 10 µM [9]: 92%; remaining activity at 10 µM [10]: 80%; remaining activity at 10 µM [11]: 99%; remaining activity at 10 µM [12]: 80%; GluN2D (max) (%) [13]: (396) %; EC50 ([14]; read-out: GluN2D pEC50 [95% CI] (converted)): 1.58 µM; remaining activity at 10 µM [15]: 76% |
